# System: MV-4-11 cells
# Assay: Gene expression microarray analysis (Affymetrix PrimeView) and GSEA
# Format: cell-based, human
# Parameters: RFU PODN (11730768_x_at) / Fold change /veh PODN (11730768_x_at) / RFU LINC00158 (11744669_a_at) / Fold change /veh LINC00158 (11744669_a_at) / RFU DUSP10 (11751237_a_at) / Fold change /veh DUSP10 (11751237_a_at) / RFU ID3 (11757404_x_at) / Fold change /veh ID3 (11757404_x_at) / RFU PLEKHG5 (11737974_s_at) / Fold change /veh PLEKHG5 (11737974_s_at) / RFU LRRC4B (11730491_at) / Fold change /veh LRRC4B (11730491_at) / RFU GIMAP4 (11747438_a_at) / Fold change /veh GIMAP4 (11747438_a_at) / RFU KRT8 (11758183_x_at) / Fold change /veh KRT8 (11758183_x_at) / RFU CNN1 (11734310_a_at) / Fold change /veh CNN1 (11734310_a_at) / RFU VPS37D (11726825_at) / Fold change /veh VPS37D (11726825_at) / RFU C10orf10 (11716522_x_at) / Fold change /veh C10orf10 (11716522_x_at) / RFU KIR2DL2 /// KIR2DL4 /// KIR2DL5A /// KIR2DL5B /// KIR2DS1 /// KIR2DS2 /// KIR2DS3 /// KIR2DS4 /// KIR3DL3 /// KIR3DL3 /// KIR3DS1 (11738374_at) / Fold change /veh KIR2DL2 /// KIR2DL4 /// KIR2DL5A /// KIR2DL5B /// KIR2DS1 /// KIR2DS2 /// KIR2DS3 /// KIR2DS4 /// KIR3DL3 /// KIR3DL3 /// KIR3DS1 (11738374_at) / RFU C1QL1 (11718748_at) / Fold change /veh C1QL1 (11718748_at) / RFU TMPRSS4 (11747572_a_at) / Fold change /veh TMPRSS4 (11747572_a_at) / RFU HAMP (11756126_x_at) / Fold change /veh HAMP (11756126_x_at) / RFU RNFT2 (11725882_a_at) / Fold change /veh RNFT2 (11725882_a_at) / RFU NR4A2 (11747474_a_at) / Fold change /veh NR4A2 (11747474_a_at) / RFU ABCC12 (11746883_a_at) / Fold change /veh ABCC12 (11746883_a_at) / RFU TMEM136 (11760407_x_at) / Fold change /veh TMEM136 (11760407_x_at) / RFU CLDN22 /// WWC2 (11732394_at) / Fold change /veh CLDN22 /// WWC2 (11732394_at) / RFU HLA-DPB1 (11760878_x_at) / Fold change /veh HLA-DPB1 (11760878_x_at) / RFU SPINT1 (11716480_a_at) / Fold change /veh SPINT1 (11716480_a_at) / RFU GAP43 (11754022_s_at) / Fold change /veh GAP43 (11754022_s_at) / RFU A4GNT (11735810_at) / Fold change /veh A4GNT (11735810_at) / RFU PRB3 (11715151_x_at) / Fold change /veh PRB3 (11715151_x_at) / RFU TUBB4B (11761932_at) / Fold change /veh TUBB4B (11761932_at) / RFU CAPN14 (11732068_a_at) / Fold change /veh CAPN14 (11732068_a_at) / RFU TMCC2 (11721928_a_at) / Fold change /veh TMCC2 (11721928_a_at) / RFU IRGQ (11745062_a_at) / Fold change /veh IRGQ (11745062_a_at) / RFU FAM174B (11720279_a_at) / Fold change /veh FAM174B (11720279_a_at) / RFU TMPRSS4 (11748680_a_at) / Fold change /veh TMPRSS4 (11748680_a_at) / RFU FAM212B (11763350_a_at) / Fold change /veh FAM212B (11763350_a_at) / RFU PLEKHG5 (11743358_a_at) / Fold change /veh PLEKHG5 (11743358_a_at) / RFU ZSCAN30 (11745921_a_at) / Fold change /veh ZSCAN30 (11745921_a_at) / RFU CMKLR1 (11741424_a_at) / Fold change /veh CMKLR1 (11741424_a_at) / RFU LOC101060620 /// MAPK8IP1 (11723275_at) / Fold change /veh LOC101060620 /// MAPK8IP1 (11723275_at) / RFU SPTSSB (11747773_x_at) / Fold change /veh SPTSSB (11747773_x_at) / RFU PRSS12 (11739890_at) / Fold change /veh PRSS12 (11739890_at) / RFU BIN1 (11741810_x_at) / Fold change /veh BIN1 (11741810_x_at) / RFU WNT11 (11732464_a_at) / Fold change /veh WNT11 (11732464_a_at) / RFU C10orf10 (11716521_a_at) / Fold change /veh C10orf10 (11716521_a_at) / RFU C5orf56 (11738089_at) / Fold change /veh C5orf56 (11738089_at) / RFU CYB561 (11721691_x_at) / Fold change /veh CYB561 (11721691_x_at) / RFU ANKRD19P (11752326_a_at) / Fold change /veh ANKRD19P (11752326_a_at) / RFU OR2T12 /// OR2T33 /// OR2T8 (11738714_s_at) / Fold change /veh OR2T12 /// OR2T33 /// OR2T8 (11738714_s_at) / RFU VCAN (11748164_a_at) / Fold change /veh VCAN (11748164_a_at) / RFU JSRP1 (11732532_at) / Fold change /veh JSRP1 (11732532_at) / RFU KRTAP10-11 (11738290_x_at) / Fold change /veh KRTAP10-11 (11738290_x_at) / RFU MYO3A (11730013_a_at) / Fold change /veh MYO3A (11730013_a_at) / RFU EBF3 (11725865_a_at) / Fold change /veh EBF3 (11725865_a_at) / RFU CAMK2N1 (11719241_x_at) / Fold change /veh CAMK2N1 (11719241_x_at) / RFU C5orf56 (11738088_a_at) / Fold change /veh C5orf56 (11738088_a_at) / RFU OLFML3 (11715873_a_at) / Fold change /veh OLFML3 (11715873_a_at) / RFU LOC100653217 /// NTM (11731650_a_at) / Fold change /veh LOC100653217 /// NTM (11731650_a_at) / RFU MAPK11 (11762145_a_at) / Fold change /veh MAPK11 (11762145_a_at) / RFU FIZ1 (11724087_x_at) / Fold change /veh FIZ1 (11724087_x_at) / RFU OASL (11726364_x_at) / Fold change /veh OASL (11726364_x_at) / RFU SOX15 (11748057_x_at) / Fold change /veh SOX15 (11748057_x_at) / RFU CD79A (11719716_a_at) / Fold change /veh CD79A (11719716_a_at) / RFU HIST1H1D (11736915_at) / Fold change /veh HIST1H1D (11736915_at) / RFU CASKIN2 (11723855_a_at) / Fold change /veh CASKIN2 (11723855_a_at) / RFU LOC730098 (11760151_x_at) / Fold change /veh LOC730098 (11760151_x_at) / RFU OR4N2 (11742367_at) / Fold change /veh OR4N2 (11742367_at) / RFU PRRT2 (11749266_a_at) / Fold change /veh PRRT2 (11749266_a_at) / RFU SNX32 (11753110_a_at) / Fold change /veh SNX32 (11753110_a_at) / RFU CDHR5 (11726645_a_at) / Fold change /veh CDHR5 (11726645_a_at) / RFU RCAN1 (11760418_a_at) / Fold change /veh RCAN1 (11760418_a_at) / RFU FAM167A (11723789_a_at) / Fold change /veh FAM167A (11723789_a_at) / RFU FAM26E (11764081_at) / Fold change /veh FAM26E (11764081_at) / RFU ISYNA1 (11749810_s_at) / Fold change /veh ISYNA1 (11749810_s_at) / RFU ACY1 (11761880_at) / Fold change /veh ACY1 (11761880_at) / RFU 11764098_at / Fold change /veh 11764098_at / RFU SAMD14 (11745864_x_at) / Fold change /veh SAMD14 (11745864_x_at) / RFU NPB (11741838_a_at) / Fold change /veh NPB (11741838_a_at) / RFU TMPRSS6 (11731388_a_at) / Fold change /veh TMPRSS6 (11731388_a_at) / RFU KRTAP10-2 (11738614_at) / Fold change /veh KRTAP10-2 (11738614_at) / RFU ARHGAP8 /// PRR5-ARHGAP8 (11727945_x_at) / Fold change /veh ARHGAP8 /// PRR5-ARHGAP8 (11727945_x_at) / RFU KRTAP5-7 /// NADSYN1 (11734609_at) / Fold change /veh KRTAP5-7 /// NADSYN1 (11734609_at) / RFU RASL12 (11751679_a_at) / Fold change /veh RASL12 (11751679_a_at) / RFU CDKN2B (11736163_a_at) / Fold change /veh CDKN2B (11736163_a_at) / RFU PRF1 (11729649_at) / Fold change /veh PRF1 (11729649_at) / RFU, ZNF638 /// ZNF638-IT1 / Fold change vs veh, ZNF638 /// ZNF638-IT1 / RFU, PANK3 / Fold change vs veh, PANK3 / RFU, SH3YL1 / Fold change vs veh, SH3YL1 / RFU, ZEB2 / Fold change vs veh, ZEB2 / RFU, NRIP1 / Fold change vs veh, NRIP1 / RFU, PTTG1IP / Fold change vs veh, PTTG1IP / RFU, CAPN2 / Fold change vs veh, CAPN2 / RFU, MED14 / Fold change vs veh, MED14 / RFU, SNORA58 / Fold change vs veh, SNORA58 / RFU, C1orf63 / Fold change vs veh, C1orf63 / RFU, LRRFIP1 / Fold change vs veh, LRRFIP1 / RFU, NDUFAF7 / Fold change vs veh, NDUFAF7 / RFU, SLC12A2 / Fold change vs veh, SLC12A2 / RFU, IBTK / Fold change vs veh, IBTK / RFU, ESF1 / Fold change vs veh, ESF1 / Fold change vs veh, TMEM50B / RFU, TAOK1 / Fold change vs veh, TAOK1 / RFU, ACBD3 / Fold change vs veh, ACBD3 / RFU, TMA16 / Fold change vs veh, TMA16 / RFU, RWDD3 / Fold change vs veh, RWDD3 / RFU, BCAT1 / Fold change vs veh, BCAT1 / RFU, EDEM3 / Fold change vs veh, EDEM3 / RFU, TMEM33 / Fold change vs veh, TMEM33 / RFU, WDR75 / Fold change vs veh, WDR75 / RFU, AHCTF1 / Fold change vs veh, AHCTF1 / RFU, TFRC / Fold change vs veh, TFRC / RFU, ZDHHC17 / Fold change vs veh, ZDHHC17 / RFU, NOM1 / Fold change vs veh, NOM1 / RFU, ARL8B / Fold change vs veh, ARL8B / RFU, ZBTB11 / Fold change vs veh, ZBTB11 / RFU, TAMM41 / Fold change vs veh, TAMM41 / RFU, KIAA1704 /// LOC100996395 / Fold change vs veh, KIAA1704 /// LOC100996395 / RFU, ING1 / Fold change vs veh, ING1 / RFU, TRMT61B / Fold change vs veh, TRMT61B / RFU, FUBP3 / Fold change vs veh, FUBP3 / RFU, TP53 / Fold change vs veh, TP53 / RFU, TNKS2 / Fold change vs veh, TNKS2 / RFU, ZFP14 / Fold change vs veh, ZFP14 / RFU, ACTR2 / Fold change vs veh, ACTR2 / RFU, PPP3R1 / Fold change vs veh, PPP3R1 / RFU, PIK3R1 / Fold change vs veh, PIK3R1 / RFU, HNRNPA1 / Fold change vs veh, HNRNPA1 / RFU, RNF170 / Fold change vs veh, RNF170 / RFU, ZNF28 / Fold change vs veh, ZNF28 / RFU, RNGTT / Fold change vs veh, RNGTT / RFU, OGT / Fold change vs veh, OGT / RFU, BRD1 / Fold change vs veh, BRD1 / RFU, MARS / Fold change vs veh, MARS / RFU, ZNF655 / Fold change vs veh, ZNF655 / RFU, FAHD1 / Fold change vs veh, FAHD1 / RFU, BDP1 / Fold change vs veh, BDP1 / RFU, LRRCC1 / Fold change vs veh, LRRCC1 / RFU, ARID1A / Fold change vs veh, ARID1A / RFU, ZNF146 / Fold change vs veh, ZNF146 / RFU, ZNF330 / Fold change vs veh, ZNF330 / RFU, GPN3 / Fold change vs veh, GPN3 / RFU, C9orf123 / Fold change vs veh, C9orf123 / RFU, N4BP2L2 / Fold change vs veh, N4BP2L2 / RFU, ARFIP1 / Fold change vs veh, ARFIP1 / RFU, FAM179B / Fold change vs veh, FAM179B / RFU, BCL10 / Fold change vs veh, BCL10 / RFU, UHRF1BP1L / Fold change vs veh, UHRF1BP1L / RFU, BET1 / Fold change vs veh, BET1 / RFU, CNOT2 / Fold change vs veh, CNOT2 / RFU, ZNF268 / Fold change vs veh, ZNF268 / Fold change vs veh, ZNF507 / RFU, DGCR2 / Fold change vs veh, DGCR2 / RFU, WDSUB1 / Fold change vs veh, WDSUB1 / Fold change vs veh, HSP90B1 /// MIR3652 / RFU, ADSS / Fold change vs veh, ADSS / RFU, GK / Fold change vs veh, GK / RFU, ZNF148 / Fold change vs veh, ZNF148 / RFU, TAF9 / Fold change vs veh, TAF9 / RFU, SLC1A5 / Fold change vs veh, SLC1A5 / RFU, SLMO2 / Fold change vs veh, SLMO2 / RFU, ABCC4 / Fold change vs veh, ABCC4 / RFU, LOC101060439 /// RAP1B / Fold change vs veh, LOC101060439 /// RAP1B / RFU, RFX7 / Fold change vs veh, RFX7 / RFU, GTPBP10 / Fold change vs veh, GTPBP10 / RFU, CNEP1R1 / Fold change vs veh, CNEP1R1 / RFU, BIVM-ERCC5 /// ERCC5 / Fold change vs veh, BIVM-ERCC5 /// ERCC5 / RFU, ILF3 / Fold change vs veh, ILF3 / RFU 11762660_at / Fold change /veh 11762660_at / RFU VCAN (11757783_s_at) / Fold change /veh VCAN (11757783_s_at) / RFU DDX43 (11728927_at) / Fold change /veh DDX43 (11728927_at) / RFU KRT8 (11758188_x_at) / Fold change /veh KRT8 (11758188_x_at) / RFU NKD1 (11759106_at) / Fold change /veh NKD1 (11759106_at) / RFU SRD5A1 (11742802_a_at) / Fold change /veh SRD5A1 (11742802_a_at) / RFU TPSAB1 /// TPSB2 (11721975_s_at) / Fold change /veh TPSAB1 /// TPSB2 (11721975_s_at) / RFU GSTM3 (11746129_a_at) / Fold change /veh GSTM3 (11746129_a_at) / RFU IL23R (11737362_x_at) / Fold change /veh IL23R (11737362_x_at) / RFU TMEM51 (11727254_a_at) / Fold change /veh TMEM51 (11727254_a_at) / RFU PIWIL2 (11732686_x_at) / Fold change /veh PIWIL2 (11732686_x_at) / RFU ORM1 (11744905_x_at) / Fold change /veh ORM1 (11744905_x_at) / RFU CCDC152 (11743942_at) / Fold change /veh CCDC152 (11743942_at) / RFU ECM1 (11717891_a_at) / Fold change /veh ECM1 (11717891_a_at) / RFU IL23R (11748794_a_at) / Fold change /veh IL23R (11748794_a_at) / RFU TNFAIP8L3 (11732012_x_at) / Fold change /veh TNFAIP8L3 (11732012_x_at) / RFU MBOAT4 (11741988_at) / Fold change /veh MBOAT4 (11741988_at) / RFU 11764193_at / Fold change /veh 11764193_at / RFU TMEM53 (11763286_at) / Fold change /veh TMEM53 (11763286_at) / RFU MAGEB2 (11727129_at) / Fold change /veh MAGEB2 (11727129_at) / RFU TMEM200A (11744735_a_at) / Fold change /veh TMEM200A (11744735_a_at) / RFU CCDC152 (11751479_a_at) / Fold change /veh CCDC152 (11751479_a_at) / RFU FAM211A (11726209_a_at) / Fold change /veh FAM211A (11726209_a_at) / RFU RGS16 (11746705_a_at) / Fold change /veh RGS16 (11746705_a_at) / RFU VCAN (11755009_s_at) / Fold change /veh VCAN (11755009_s_at) / RFU RHOB (11743442_s_at) / Fold change /veh RHOB (11743442_s_at) / RFU RGS16 (11720943_a_at) / Fold change /veh RGS16 (11720943_a_at) / RFU RGS16 (11720944_at) / Fold change /veh RGS16 (11720944_at) / RFU, VPS4B / Fold change vs veh, VPS4B / RFU, CREB1 / Fold change vs veh, CREB1 / RFU, DNAJC13 / Fold change vs veh, DNAJC13 / RFU, GNAQ / Fold change vs veh, GNAQ / RFU, CDK5R1 / Fold change vs veh, CDK5R1 / RFU, ZRANB3 / Fold change vs veh, ZRANB3 / RFU, CUL4A / Fold change vs veh, CUL4A / RFU, CCNY / Fold change vs veh, CCNY / RFU, UFL1 / Fold change vs veh, UFL1 / RFU, COG3 / Fold change vs veh, COG3 / RFU, DIAPH2 / Fold change vs veh, DIAPH2 / RFU, SKA2 / Fold change vs veh, SKA2 / RFU, AFF3 / Fold change vs veh, AFF3 / RFU, LMF1 / Fold change vs veh, LMF1 / RFU, IPO11 / Fold change vs veh, IPO11 / RFU, DFFB / Fold change vs veh, DFFB / RFU, FOXP1 / Fold change vs veh, FOXP1 / RFU, CARD8 / Fold change vs veh, CARD8 / RFU, STRN3 / Fold change vs veh, STRN3 / RFU, ADK / Fold change vs veh, ADK / RFU, RASSF2 / Fold change vs veh, RASSF2 / RFU, WIPF1 / Fold change vs veh, WIPF1 / RFU, LARP1B / Fold change vs veh, LARP1B / RFU, RASA1 / Fold change vs veh, RASA1 / RFU, RB1 / Fold change vs veh, RB1 / RFU, PPFIA1 / Fold change vs veh, PPFIA1 / RFU, MAT2A / Fold change vs veh, MAT2A / RFU, CCT5 / Fold change vs veh, CCT5 / RFU, WDR92 / Fold change vs veh, WDR92 / RFU, CUX1 / Fold change vs veh, CUX1 / RFU, TTC7A / Fold change vs veh, TTC7A / RFU, TMEM135 / Fold change vs veh, TMEM135 / RFU, DEPTOR / Fold change vs veh, DEPTOR / RFU, CPM / Fold change vs veh, CPM / RFU, DNAJB6 / Fold change vs veh, DNAJB6 / RFU, CACNA2D3 / Fold change vs veh, CACNA2D3 / RFU, DTX4 / Fold change vs veh, DTX4 / RFU, TFCP2 / Fold change vs veh, TFCP2 / RFU, GMCL1 /// GMCL1P1 / Fold change vs veh, GMCL1 /// GMCL1P1 / RFU, AEBP2 / Fold change vs veh, AEBP2 / RFU, SNHG1 /// SNORD22 /// SNORD25 /// SNORD26 /// SNORD27 /// SNORD28 /// SNORD29 /// SNORD31 / Fold change vs veh, SNHG1 /// SNORD22 /// SNORD25 /// SNORD26 /// SNORD27 /// SNORD28 /// SNORD29 /// SNORD31 / Fold change (Aza/veh), C12orf56 (ProbeSet 11735607_a_at) / Fold change (ACY-1035/veh), C12orf56 (ProbeSet 11735607_a_at) / Fold change (Aza/veh), FGFR1OP (ProbeSet 11751329_s_at) / Fold change (ACY-1035/veh), FGFR1OP (ProbeSet 11751329_s_at) / Fold change (Aza/veh), VPS36 (ProbeSet 11739960_a_at) / Fold change (ACY-1035/veh), VPS36 (ProbeSet 11739960_a_at) / RFU SYPL1 (11715823_x_at) / Fold change /veh SYPL1 (11715823_x_at) / RFU IGFBP7 (11715501_s_at) / Fold change /veh IGFBP7 (11715501_s_at) / RFU REEP3 (11722064_at) / Fold change /veh REEP3 (11722064_at) / RFU IGLL1 (11728026_x_at) / Fold change /veh IGLL1 (11728026_x_at): dose or concentration left out as unconfirmed
# Settings: MV-4-11 cells, 48 hours
compound,measurement,value
Nc1ncn([C@@H]2O[C@H](CO)[C@@H](O)[C@H]2O)c(=O)n1 [azacitidine],RFU CDHR5 (11726645_a_at),45.99 RFU
